Assay results as given in patent publication US10308926B2, “Stablized EZH2 peptides” (DANA-FARBER CANCER INSTITUTE, INC., priority 2013, dated 2019).
Bridges are numbered along the chain shown (N, C = ends). Where no end group is shown, it is not given here. [ ]: non-standard residue; d: D form. S5 = C=CCCC[C@](C)(N)C(=O)O; Nle = CCCC[C@H](N)C(=O)O

Columns and labels:
[1] = biological target: T1, EED (Homo sapiens, UniProt O75530); assay: Fluorescence polarization binding of FITC-labeled SAH-EZH2 peptides to EED; details: FITC-peptide 25 nM; His-EED 25 nM-8 μM
T1 construct: His (C); made in house; host or cells: Escherichia coli BL21(DE3)
Protocol: SAH-EZH2/EED Binding Analyses: For fluorescence polarization binding analysis, C-terminal His-tagged EED (His-EED) was expressed in Escherichia coli BL21(DE3) using 0.3 mM IPTG for 6 h at room temperature. Bacterial pellet lysate was loaded onto a Ni-NTA column (Novagen) for purification of His-EED. Fluorescinated stapled peptides (final concentration, 25 nM) were incubated with His-EED (serial dilution range, 25 nM-8 μM) at room temperature until equilibrium was reached (˜15 min) Binding activity was measured by fluorescence polarization on a Perkin-Elmer LS50B luminescence 5 spectrophotometer. KD values were determined by following equation,
(§1) [formula] y: Fluorescence polarization, X: Receptor concentration, L: Ligand concentration AF: Minimum value of y, AB: Maximum value of y For anti-FITC pull down-based binding assays, HA-EED was produced in Sf21 cells as described in Shen et al.^29,46. FITC-SAH-EZH2 peptides (final concentration, 50, 10, and 2 nM) were mixed with 2 μl, 0.5 μl and 0.2 μl of anti-FITC antibody (Abcam, 1 mg/ml) respectively, and incubated with 30 μl of protein G agarose (Roche) in 400 μl binding buffer (pH 8.0, 20 mM Tris-HCl, 150 mM NaCl, 0.3% NP40, 10% glycerol). After successive washes, HA-EED (final concentration of 40 nM each tube) was added and incubated for 3 h, followed by detection of HA-EED bound to FITC-SAH-EZH2 peptides by anti-HA (Santa Cruz Biotechnology) western analysis. Detection of FITC-SAH-EZH2 peptides was accomplished by fluorescence scan (GE Healthcare Life Sciences, Typhoon 9200).

[2] = biological target: T2, HA-EED (Homo sapiens, UniProt O75530); assay: Anti-FITC pull down of HA-EED by FITC-SAH-EZH2 peptides; assay type: binding; details: HA-EED 40 nM
T2 construct: made in house; host or cells: Sf21 insect cells
Protocol: as §1

[3] = biological target: T1, EED; assay: Competitive fluorescence polarization: displacement of FITC-labeled EZH2(42-68) peptide from EED; assay type: binding; details: N-terminal acetylated peptides; EED 200 nM, FITC-peptide 20 nM, 30 min
Protocol: The EED binding affinities of SAH-EZH2 and SAH-EZH2(42-68)AC were assessed by their capacities to displace FITC-labeled EZH2(42-68) peptide from EED. Serially diluted acetyl-SAH-EZH2 and the doubly stapled acetyl-SAH-EZH2(42-68)AC (dose range from 2.5 nM to 10 μIM) were incubated with purified EED (200 nM) and FITC-labeled EZH2(42-68) peptide (20 nM) for 30 min, followed by measurement of fluorescence polarization. […] The non-binding EZH2(47-64) construct was used as a negative control.

[4] = test system: MLL-AF9 leukemia cells; assay: Apoptosis by Annexin V/7-AAD flow cytometry; assay type: cell-based, mouse; details: positive control, 2 μM, 48 h
Protocol: Cell Proliferation, Apoptosis, and Cell Cycle Analyses: To monitor the effect of SAH-EZH2 peptides on cell proliferation, MLL-AF9 cells were seeded in 48 well plates at densities of 2×10^5 cells per well in 150 μl of AF9 media and treated with SAH-EZH2 peptides (10 μM) twice daily. Cells were counted every other day using a hematocytometer. To evaluate apoptosis induction, the cells were stained with Annexin V5-PE and 7-AAD after 8 or 16 days of treatment with SAH-EZH2 peptides. Camptothecin (Biovision) was used as a positive control (2 μM, 48 h). Cells were analyzed using a BD FACScaliber and data was processed using Flowjo software. For cell cycle analysis, cells were stained with propidium iodide (BD Biosciences) after 4 or 8 days of treatment with SAH-EZH2 peptides. Cells were analyzed using a BD FACSCalibur and data processed using Modfit software.

[5] = test system: LNCaP cells; assay: Viability of androgen-dependent LNCaP cells, Cell Titer Glo; assay type: cell-based; details: every other day
Protocol: (§2) To test the anti-proliferative effect of SAH-EZH2(42-68)AC, breast (MDA-MB231) and prostate (DU145) cancer cell lines were treated with SAH-EZH2(42-68)AC at the indicated doses for 8 days and measured for viability by Cell Titer Glo®SAH-EZH2(42-68)AC was added to the culture medium once every other day. […] We further tested the anti-proliferative effects of SAH-EZH2(42-68)AC on a Ewing Sarcoma cell line (TC71) and neuroblastoma cell line (Kelly). The cells were treated with SAH-EZH2(42-68)AC at the indicated doses for 6 days on an every other day schedule and then measured for viability using Cell Titer Glo®. […] To test the anti-proliferative effect on chronic myelogenous leukemia, SAH-EZH2(42-68)AC was added to K562 cells at 10 μM every other day and viability was measured at days 2, 4, 6, and 10 using Cell Titer Glo®. […] To assess the anti-proliferative effects of SAH-EZH2(42-68)AC on androgen-dependent and advanced androgen-independent prostate cancer, SAH-EZH2(42-68)AC was added to cell culture every other day at the indicated doses and viability measured using Cell Titer Glo®.

[6] = test system: DU145 prostate cancer cells; assay: Viability of DU145 prostate cancer cells; assay type: cell-based; details: 8 days, once every other day
Description: (§3) To compare the functional and mechanism-based cellular activities of SAH-EZH2 and GSK126, a small molecule inhibitor of EZH2 enzymatic activity (McCabe et al. Nature, 492: 108-112, 2012), we conducted viability assays on the EZH2-dependent cell line MLL-AF9 and the EZH2-independent (non-leukemic) cell line 32D. […] We next compared the effects of SAH-EZH2 and GSK126 on lineage specific surface marker expression in MLL-AF9 cells. […] Given the distinct mechanisms of action of SAH-EZH2 and GSK126, we explored whether co-administration of the two compounds would enhance the anti-leukemic effects. […]
(§4) To test the anti-proliferative effect of SAH-EZH2(42-68)AC, breast (MDA-MB231) and prostate (DU145) cancer cell lines were treated with SAH-EZH2(42-68)AC at the indicated doses for 8 days and measured for viability by Cell Titer Glo®SAH-EZH2(42-68)AC was added to the culture medium once every other day. […] The cells were treated with SAH-EZH2(42-68)AC at the indicated doses for 6 days on an every other day schedule and then measured for viability using Cell Titer Glo®. […] To test the anti-proliferative effect on chronic myelogenous leukemia, SAH-EZH2(42-68)AC was added to K562 cells at 10 μM every other day and viability was measured at days 2, 4, 6, and 10 using Cell Titer Glo®. […]

[7] = test system: K562 cells; assay: Viability of K562 chronic myelogenous leukemia cells, Cell Titer Glo; assay type: cell-based; details: 10 μM every other day; days 2, 4, 6 and 10
Protocol: as §2

[8] = test system: Kelly; assay: Viability of neuroblastoma cell line Kelly, Cell Titer Glo; assay type: cell-based; details: 6 days, every other day
Protocol: as §2

[9] = test system: MDA-MB231 breast cancer cells; assay: Viability of MDA-MB231 breast cancer cells; assay type: cell-based; details: 8 days, once every other day
Description: as §3, §4

[10] = test system: Abl; assay: Viability of androgen independent prostate cancer cells Abl, Cell Titer Glo; assay type: cell-based; details: every other day, read-out: IC50 for growth
Protocol: as §2

[11] = test system: TC71; assay: Viability of Ewing Sarcoma cell line TC71, Cell Titer Glo; assay type: cell-based; details: 6 days, every other day
Protocol: as §2

[12] = test system: 22Rv1; assay: Viability of androgen independent prostate cancer cells 22Rv1, Cell Titer Glo; assay type: cell-based; details: 22Rv1, every other day; read-out: IC50 for growth
Protocol: as §2

[13] = test system: 32D; assay: Viability assay on EZH2-independent cell line 32D; assay type: cell-based; details: EZH2-independent (non-leukemic)
Description: (§5) To compare the functional and mechanism-based cellular activities of SAH-EZH2 and GSK126, a small molecule inhibitor of EZH2 enzymatic activity (McCabe et al. Nature, 492: 108-112, 2012), we conducted viability assays on the EZH2-dependent cell line MLL-AF9 and the EZH2-independent (non-leukemic) cell line 32D. […] We next compared the effects of SAH-EZH2 and GSK126 on lineage specific surface marker expression in MLL-AF9 cells. […] Given the distinct mechanisms of action of SAH-EZH2 and GSK126, we explored whether co-administration of the two compounds would enhance the anti-leukemic effects. […] Thus, SAH-EZH2 manifests a unique mechanism of action by targeting EED, dissociating the EZH2/EED complex, and thereby reduces EZH2 protein levels. As a result, the H3K27Me3 mark is reduced over time and PRC2 transcriptional effects are inhibited, leading to anti-proliferative and induced-differentiation effects on EZH2-dependent leukemia cells.

[14] = test system: MLL-AF9; assay: Viability assay on EZH2-dependent cell line MLL-AF9; assay type: cell-based, mouse
Description: as §5

[15] = test system: CD133; assay: CD133 expression in MLL-AF9 cells; assay type: cell-based, mouse; details: MLL-AF9, 8 days of treatment
[16] = test system: Ace1, Adam8 and Fcer1a; assay: Real time qPCR of macrophage/monocyte lineage-specific markers in MLL-AF9 cells; assay type: cell-based, mouse; details: MLL-AF9, 8 days

T1 sequence (O75530 whole entry, species assumed): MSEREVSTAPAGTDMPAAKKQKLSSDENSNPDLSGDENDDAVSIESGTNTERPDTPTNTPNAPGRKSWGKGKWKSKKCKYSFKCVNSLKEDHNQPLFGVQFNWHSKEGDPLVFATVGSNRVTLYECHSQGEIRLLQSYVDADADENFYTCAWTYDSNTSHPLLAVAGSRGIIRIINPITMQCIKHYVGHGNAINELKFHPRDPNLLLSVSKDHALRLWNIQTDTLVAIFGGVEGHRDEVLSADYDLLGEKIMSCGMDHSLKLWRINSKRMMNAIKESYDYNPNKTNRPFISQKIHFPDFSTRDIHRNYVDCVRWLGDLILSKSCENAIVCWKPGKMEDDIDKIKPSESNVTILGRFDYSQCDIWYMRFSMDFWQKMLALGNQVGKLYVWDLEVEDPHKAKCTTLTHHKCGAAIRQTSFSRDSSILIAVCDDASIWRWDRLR
T2 sequence (O75530 whole entry): as the sequence (O75530 whole entry, species assumed) above

SAH-EZH2B(42-64): foreshortened stapled EZH2(42-64) peptide with the B-positioned staple; probably position 'C' of FIG. 2, SEQ ID NO: 20 (FSSNRQKILERT[S5]ILN[S5]EWKQRR; staple 13-17)
EED-binding activity by fluorescence polarization [1]: no appreciable engagement | Engagement of HA-EED by anti-FITC pull down [2]: no appreciable engagement

QKILERTEILNQEWKQRR (SEQ ID NO: 11) [EZH2(47-64), reference compound]
Displacement of FITC-labeled EZH2(42-68) peptide from EED [3]: non-binding

CC[C@@]1(O)C(=O)OCc2c1cc1n(c2=O)Cc2cc3ccccc3nc2-1 [camptothecin]
Apoptotic effect [4]: robust apoptotic effect

SBFSSNRXKILXRTEILNQEWKQRRIQPV (SEQ ID NO: 3) (S[Nle]FSSNR[S5]KIL[S5]RTEILNQEWKQRRIQPV; staple 8-12) [SAH-EZH2A(40-68)]
EED-binding activity by fluorescence polarization [1]: most potent dose-responsive EED-binding activities

FSSNRXKILXRTEILNQEWKQRR (SEQ ID NO: 19) (FSSNR[S5]KIL[S5]RTEILNQEWKQRR; staple 6-10) [SAH-EZH2A(42-64)]
EED-binding activity by fluorescence polarization [1]: no appreciable engagement | Engagement of HA-EED by anti-FITC pull down [2]: no appreciable engagement

FSSNRXKILXRTXILNXEWKQRRIQPV (SEQ ID NO:56) (FSSNR[S5]KIL[S5]RT[S5]ILN[S5]EWKQRRIQPV; staple 6-10, 13-17) [SAH-EZH2(42-68)AC]
Anti-proliferative activity on LNCaP [5]: anti-proliferative activity in each case | Anti-proliferative effect on DU145 [6]: enhanced dose-dependent anti-proliferative effects compared to SAH-EZH2 treatment | Displacement of FITC-labeled EZH2(42-68) peptide from EED [3]: two times more efficiently than SAH-EZH2 | Proliferation of K562 cells [7]: decreased proliferation of K562 cells in a dose-responsive manner | Anti-proliferative effect on Kelly [8]: noticeable anti-proliferative effects | Anti-proliferative effect on MDA-MB231 [9]: enhanced dose-dependent anti-proliferative effects compared to SAH-EZH2 treatment | IC50 [10]: < 1000 nM | Anti-proliferative effect on TC71 [11]: noticeable anti-proliferative effects | IC50 [12]: < 1000 nM

CC[C@H](C)n1cc(C)c2c(C(=O)NCc3c(C)cc(C)[nH]c3=O)cc(-c3ccc(N4CCNCC4)nc3)cc21 [GSK126]
Viability of 32D cells [13]: decreased the viability | Viability of MLL-AF9 cells [14]: decreased the viability | Expression of CD133 [15]: decreased the expression | Expression of macrophage lineage-specific markers [16]: increase expression of Fcerla

SAH-EZH2B(40-68): stapled EZH2(40-68) peptide with the B-positioned staple; probably position 'C' (54-58) of FIG. 2, SEQ ID NO: 5 (S[Nle]FSSNRQKILERT[S5]ILN[S5]EWKQRRIQPV; staple 15-19)
EED-binding activity by fluorescence polarization [1]: most potent dose-responsive EED-binding activities
